The format of this data set is physicochemical. The protocol:
The temperature was adjusted to 90° C. The 2,4-DHBP concentration in the feed DIOPAT suspension of the diafiltration was about 0.32%. […] Thus, some 2,4-DHBP probably was already precipitated and had to be brought back into solution during the DF process. In the DF process, the DIOPAT suspension was held at 90° C. and was permanently washed with 12 kg fresh water. During the washing process, the DIOPAT concentration stayed constant. To separate the Al-salts and organic by-products, the DIOPAT suspension was pumped from the feed vessel to a ceramic membrane module and from there back to the feed vessel. In the ceramic membrane, the dissolved components (Al-salts and some org. components such as 2,4-DHBP) passed through the membrane. The DIOPAT particles stayed in the suspension and went back to the feed vessel. The permeate was send to the waste water treatment plant. In total, the suspension at the beginning of the membrane process (suspension after precipitation) was washed with a washing factor of 4.5. Then, the Al-salt concentration in the retentate was less than approx. 65 ppm.

Molecules are shown by their SMILES.

Consider `O=C(c1ccccc1)c1ccc(O)cc1O` [2,4-DHBP, 2,4-dihydroxybenzophenone], for which the “solubility in acidic water” value is given as “about 0.18%”.

The values above are taken from US12304891B2, “Removal of Al-salts, HCl, NaCl and organic by-product from DIOPAT suspension by means of ceramic membranes in strong acidic conditions at high temperature” (BASF SE, priority 2018, dated 2025).
